This is an account of results in ChEMBL document CHEMBL1201862, “PubChem BioAssay data set” (2004).

Test systems include OVCAR-4; DLD-1; HCT-116; IGROV-1; SR; HCC 2998; HCT-15; SF-268; MOLT-4; NCI-H226; HT-29; SNB-19; ACHN; CCRF-CEM; SK-OV-3; SK-MEL-28; M14; NCI-H522; OVCAR-3; M19-MEL.
Experiment in all cases: NCI-60 cell line screen, 48 h

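In this assay, cells in 96-well plates receive the compound at five concentrations for 48 hours. Endpoints are linearly interpolated between the surrounding concentrations. Abbreviation: GI50, concentration required for 50% inhibition of growth.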 Calls of active or inactive are those of the source. Cut-off read from the data, not from the text of the source: active = GI50 up to about 1.1 µM and inactive = higher. Where only a bound is given, the exact number is not on record here.

As for `O=C(Nc1ccc(F)cc1)C(=O)C(C(=O)c1ccccc1F)C1OC(=O)c2ccccc21` (centres undefined), the GI50 with OVCAR-4 is 55.3 µM (inactive); with DLD-1, 76.4 µM (inactive); in the experiment with HCT-116, 45.8 µM (inactive); in the experiment on IGROV-1, > 100 µM (inactive); in the experiment on SR, 19.8 µM (inactive); with HCC 2998, 38.5 µM (inactive). The GI50 is 23.6 µM with HCT-15; 50 µM (inactive) with SF-268; 14.9 µM (inactive) in the experiment with MOLT-4; 21.4 µM (inactive) with NCI-H226; 52.6 µM (inactive) in the experiment on HT-29; 39.4 µM (inactive) in the experiment on SNB-19. Moreover, the GI50 with ACHN was > 100 µM (inactive); in the experiment with CCRF-CEM, 17.6 µM (inactive); in the experiment with SK-OV-3 it was 66.5 µM (inactive); in the experiment on SK-MEL-28, 87.3 µM (inactive); in the experiment with M14, > 100 µM (inactive); with NCI-H522, 15 µM (inactive).

In the case of `COc1cc(S(=O)(=O)Nc2ccc(-c3csc(N4C(=O)C(C)SC4c4cccc(Oc5ccccc5)c4)n3)cc2)ccc1Cl` (centres undefined), the GI50 with HCT-116 is 34.8 µM (inactive); in the experiment with IGROV-1, 39 µM (inactive); with SR, 26.3 µM (inactive); with HCT-15 it was 36.9 µM; with SF-268 it was 26.7 µM (inactive); in the experiment on MOLT-4, 37.8 µM (inactive). Further, the GI50 is 27.1 µM (inactive) in the experiment with NCI-H226; 35.4 µM (inactive) in the experiment on HT-29; 43.6 µM (inactive) in the experiment with OVCAR-3; 86.9 µM (inactive) with SNB-19; 57.8 µM (inactive) in the experiment with ACHN; 64.7 µM (inactive) in the experiment with CCRF-CEM. Further, the GI50 is 52.6 µM (inactive) in the experiment with SK-OV-3, 55.8 µM (inactive) in the experiment on SK-MEL-28, 34.7 µM (inactive) with M14 and 29.8 µM (inactive) in the experiment on NCI-H522.

For `CCOC(=O)C(Cc1c(-c2[nH]c3ccccc3c2CC(NC(=O)CNC(C)=O)C(=O)OCC)[nH]c2ccccc12)NC(=O)CNC(C)=O` (centres undefined), the GI50 with OVCAR-4 is > 100 µM (inactive); with HCT-116, > 100 µM (inactive); with IGROV-1, > 100 µM (inactive); in the experiment with SR it was 40.4 µM (inactive); in the experiment on HCC 2998 it was 23.1 µM (inactive); in the experiment with HCT-15, over 100 µM. The GI50 is 45.5 µM (inactive) with SF-268; 53.2 µM (inactive) in the experiment with MOLT-4; > 100 µM (inactive) with HT-29; 42.3 µM (inactive) in the experiment on OVCAR-3; > 100 µM (inactive) in the experiment with SNB-19; > 100 µM (inactive) in the experiment with CCRF-CEM. The GI50 was > 100 µM (inactive) with SK-OV-3, 45.4 µM (inactive) in the experiment on SK-MEL-28, 71.6 µM (inactive) with M14 and 27.9 µM (inactive) in the experiment on NCI-H522.

Regarding `N#C[C@@H](c1nc2ccccc2s1)c1ncccc1[N+](=O)[O-]`, the GI50 with OVCAR-4 was 7.91 µM (inactive); in the experiment on HCT-116, 5.6 µM (inactive); in the experiment on IGROV-1 it was 5.07 µM (inactive); with SR, 4.67 µM (inactive); with HCC 2998, 10.6 µM (inactive); with HCT-15, 7.13 µM. Also, the GI50 is 8.11 µM (inactive) with SF-268; 9.12 µM (inactive) in the experiment on MOLT-4; 5.55 µM (inactive) in the experiment with NCI-H226; 8.3 µM (inactive) with HT-29; 2.48 µM (inactive) with OVCAR-3; 3.94 µM (inactive) in the experiment on SNB-19. Moreover, the GI50 is 6.07 µM (inactive) with ACHN; > 10 µM (inactive) in the experiment with CCRF-CEM; 16.6 µM (inactive) in the experiment with SK-OV-3; > 10 µM (inactive) in the experiment on SK-MEL-28; 8.22 µM (inactive) in the experiment with M14; 2.51 µM (inactive) with NCI-H522.

As for `Clc1ccc(N/N=C(\c2ccccc2)c2ccccn2)nc1`, the GI50 in the experiment with OVCAR-4 is 3.04 µM (inactive); with HCT-116 it was < 0.0148 µM (active); with IGROV-1 it was 0.0239 µM (active); with SR, 0.114 µM (active); in the experiment on HCC 2998, 3.81 µM (inactive); in the experiment on HCT-15 it was under 0.0183 µM. Further, the GI50 was 0.0258 µM (active) in the experiment on SF-268; < 0.01 µM (active) with MOLT-4; 0.0891 µM (active) in the experiment with NCI-H226; < 0.01 µM (active) in the experiment on HT-29; < 0.0121 µM (active) in the experiment with OVCAR-3; 1.17 µM (inactive) in the experiment with SNB-19. The GI50 with ACHN is < 0.01 µM (active); in the experiment with CCRF-CEM, < 0.01 µM (active); in the experiment with SK-OV-3, 0.282 µM (active); in the experiment with SK-MEL-28, 2.67 µM (inactive); with M14, < 0.01 µM (active); with NCI-H522 it was < 0.01 µM (active).

Regarding `CC(=O)N(C(=O)CC(=O)N1N=C(C)C(/N=N/c2cccc([N+](=O)[O-])c2)C1=O)c1ccc(Cl)cc1` (centres undefined), the GI50 with OVCAR-4 is > 10 µM (inactive); in the experiment with HCT-116, > 10 µM (inactive); with IGROV-1, > 10 µM (inactive); in the experiment on SR, > 10 µM (inactive); in the experiment with HCC 2998 it was > 10 µM (inactive); with HCT-15, over 10 µM. The GI50 in the experiment with SF-268, in the experiment on HT-29, with OVCAR-3, with SNB-19, in the experiment with ACHN and in the experiment on CCRF-CEM was > 10 µM (inactive) in each case. Moreover, the GI50 with SK-OV-3, in the experiment with SK-MEL-28, in the experiment on M14 and in the experiment on NCI-H522 was > 10 µM (inactive) in each case.

Take `C[C@H](C(=O)O)C(=O)NC(=O)N(Cc1ccccc1)N=O`: the GI50 with OVCAR-4, in the experiment with DLD-1, in the experiment with HCT-116, in the experiment with M19-MEL, in the experiment with IGROV-1 and in the experiment on HCC 2998 was > 100 µM (inactive) each time. Moreover, the GI50 was over 100 µM in the experiment with HCT-15; > 100 µM (inactive) with SF-268; > 100 µM (inactive) with MOLT-4; > 100 µM (inactive) in the experiment on HT-29; > 100 µM (inactive) with OVCAR-3; > 100 µM (inactive) with SNB-19. In addition, the GI50 with ACHN is > 100 µM (inactive); in the experiment on CCRF-CEM it was 67.1 µM (inactive); with SK-OV-3, > 100 µM (inactive); in the experiment with SK-MEL-28, > 100 µM (inactive); in the experiment with M14, > 100 µM (inactive).

Consider `CN(C(=O)C12C3C4C1C1C2C3C41C(=O)C(C)(C)C)C(C)(C)C` (centres undefined), for which the GI50 in the experiment on OVCAR-4, with DLD-1, with HCT-116, in the experiment on M19-MEL, with IGROV-1 and in the experiment with HCC 2998 was > 100 µM (inactive) each time. Moreover, the GI50 in the experiment on SF-268, in the experiment with MOLT-4, in the experiment on HT-29, in the experiment with OVCAR-3, with SNB-19 and in the experiment with ACHN was > 100 µM (inactive) in each case. The GI50 in the experiment with CCRF-CEM was > 100 µM (inactive); in the experiment with SK-OV-3, > 100 µM (inactive); in the experiment on SK-MEL-28, > 100 µM (inactive); in the experiment with M14, > 100 µM (inactive); with NCI-H522, 22 µM (inactive).

Take `O=S(O)c1cc(Cl)cc(Cl)c1O`: the GI50 in the experiment on OVCAR-4, with DLD-1, in the experiment on HCT-116, in the experiment on M19-MEL, in the experiment on HCC 2998 and with SF-268 was > 100 µM (inactive) each time. The GI50 in the experiment on MOLT-4, in the experiment with HT-29, in the experiment on OVCAR-3, in the experiment with SNB-19, with ACHN and in the experiment on CCRF-CEM was > 100 µM (inactive) in each case. For the same molecule, the GI50 with SK-OV-3, in the experiment with SK-MEL-28, in the experiment on M14 and in the experiment on NCI-H522 was > 100 µM (inactive) each time.

`O=c1[nH]cnc2sc(=S)c3c(c12)CCC3`: the GI50 in the experiment on OVCAR-4 was 33.5 µM (inactive); with HCT-116, 31.3 µM (inactive); in the experiment on IGROV-1, 15.8 µM (inactive); in the experiment with SR, 12.1 µM (inactive); in the experiment on HCT-15, 29 µM; in the experiment on SF-268 it was > 100 µM (inactive). Also, the GI50 is 11.7 µM (inactive) in the experiment with MOLT-4; 20.8 µM (inactive) with NCI-H226; 35.2 µM (inactive) in the experiment on HT-29; 18.4 µM (inactive) in the experiment with OVCAR-3; 48.5 µM (inactive) in the experiment on SNB-19; 17.3 µM (inactive) in the experiment with ACHN. The GI50 in the experiment with CCRF-CEM was 21 µM (inactive); with SK-OV-3 it was > 100 µM (inactive); in the experiment on SK-MEL-28 it was 40.1 µM (inactive); in the experiment on M14 it was 34.2 µM (inactive); with NCI-H522, 15.9 µM (inactive).

For the molecule `NC(CCOCCP(=O)(O)CCOCCC(N)C(=O)O)C(=O)O` (centres undefined), the GI50 with OVCAR-4 is > 100 µM (inactive); in the experiment on HCT-116, > 100 µM (inactive); in the experiment with IGROV-1, > 100 µM (inactive); in the experiment with SR, > 100 µM (inactive); in the experiment with HCC 2998, > 100 µM (inactive); with HCT-15 it was over 100 µM. For the same molecule, the GI50 in the experiment with SF-268, in the experiment with MOLT-4, with HT-29, with OVCAR-3, in the experiment with SNB-19 and in the experiment on ACHN was > 100 µM (inactive) throughout. Further, the GI50 in the experiment with CCRF-CEM, in the experiment with SK-OV-3, with SK-MEL-28, in the experiment with M14 and in the experiment on NCI-H522 was > 100 µM (inactive) in each case.

On to `O=S(O)CCCCSSCCCCS(=O)(=O)S`, for which the GI50 is 25.5 µM (inactive) with OVCAR-4; > 100 µM (inactive) with DLD-1; > 100 µM (inactive) in the experiment with HCT-116; 12.1 µM (inactive) in the experiment with M19-MEL; > 100 µM (inactive) in the experiment on IGROV-1; > 100 µM (inactive) in the experiment with HCC 2998. For the same molecule, the GI50 with HCT-15 was 59 µM; with SF-268 it was 35.6 µM (inactive); in the experiment with MOLT-4 it was 2 µM (inactive); in the experiment on HT-29 it was 38.6 µM (inactive); in the experiment with OVCAR-3 it was 49.2 µM (inactive); in the experiment on SNB-19, > 100 µM (inactive). Further, the GI50 was 72.6 µM (inactive) with ACHN; 13.8 µM (inactive) in the experiment on CCRF-CEM; > 100 µM (inactive) in the experiment on SK-OV-3; 27 µM (inactive) in the experiment with SK-MEL-28; 15.7 µM (inactive) in the experiment with M14; 19.3 µM (inactive) with NCI-H522.
